Measured values: patent US8604042B2, “Bi-aryl meta-pyrimidine inhibitors of kinases” (TargeGen, Inc., priority 2005, dated 2013)
Where a name gives a salt, the structure may show the parent alone. Read-outs that look alike come from different tables or passages of the source.

What was measured:
[1] = Ocular exposure after eye drop administration; assay type: in vivo; details: mouse, bilateral topical instillation of 0.1% formulation QDX1
Method: Exposure data of compounds at 0.1% via eye drop administration:
On topical dosing of compounds formulated as 0.1% doses in 0.2% tyloxapol/1% HPMC/4% Mannitol, exposure levels in found in back of the eye tissues of the mouse are shown at two different time points, namely at 2 h and at 7 h.

[2] = system: HMC-1, a mast cell leukemia line (KITD816V-positive); assay: XTT cell proliferation assay, HMC-1; assay type: cell-based; details: Homo sapiens, HMC1; XTT assay; read-out: Cellular IC50 HMC-1
[3] = target: T1, Ba/F3 T674I (FIP1L1-PDFRA-T674I) (Homo sapiens, UniProt P16234, T674I, cells depend on it); assay: XTT cell proliferation assay, Ba/F3 T674I; assay type: cell-based
T1 construct: fused on or other part: Q6UN15 (Pre-mRNA 3'-end-processing factor FIP1)

[4] = system: EOL-1, a chronic eosinophilic leukemia (CEL) derived line (FIP1L1-PDFRA-positive); assay: XTT cell proliferation assay, EOL-1; assay type: cell-based
recombinant JAK2 = target: T2, recombinant JAK2 (Homo sapiens, UniProt O60674); assay: IC50 value determinations for Jak2 kinase, luminescence-based kinase assay (Kinase-Glo); assay type: biochemical
T2 construct: purchased Upstate Cell Signaling Solutions

[5] = cornea, read-out: Concentration (nM) Cornea
[6] = retina, read-out: Concentration (nM) retina
[7] = sclera/choroid, read-out: Concentration (nM) Sclera/choroid

T2 sequence (O60674 808-1132 limits assumed): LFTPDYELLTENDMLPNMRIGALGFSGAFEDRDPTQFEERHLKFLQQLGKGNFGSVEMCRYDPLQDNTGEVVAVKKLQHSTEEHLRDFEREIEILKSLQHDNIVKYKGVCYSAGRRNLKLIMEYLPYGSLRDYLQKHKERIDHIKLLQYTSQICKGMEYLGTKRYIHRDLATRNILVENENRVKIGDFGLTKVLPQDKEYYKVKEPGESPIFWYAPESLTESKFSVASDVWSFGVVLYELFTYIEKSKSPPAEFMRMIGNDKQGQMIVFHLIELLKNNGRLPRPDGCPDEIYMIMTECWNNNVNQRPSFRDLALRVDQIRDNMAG
T1 sequence (P16234 whole entry T674I, the tested form may be a part): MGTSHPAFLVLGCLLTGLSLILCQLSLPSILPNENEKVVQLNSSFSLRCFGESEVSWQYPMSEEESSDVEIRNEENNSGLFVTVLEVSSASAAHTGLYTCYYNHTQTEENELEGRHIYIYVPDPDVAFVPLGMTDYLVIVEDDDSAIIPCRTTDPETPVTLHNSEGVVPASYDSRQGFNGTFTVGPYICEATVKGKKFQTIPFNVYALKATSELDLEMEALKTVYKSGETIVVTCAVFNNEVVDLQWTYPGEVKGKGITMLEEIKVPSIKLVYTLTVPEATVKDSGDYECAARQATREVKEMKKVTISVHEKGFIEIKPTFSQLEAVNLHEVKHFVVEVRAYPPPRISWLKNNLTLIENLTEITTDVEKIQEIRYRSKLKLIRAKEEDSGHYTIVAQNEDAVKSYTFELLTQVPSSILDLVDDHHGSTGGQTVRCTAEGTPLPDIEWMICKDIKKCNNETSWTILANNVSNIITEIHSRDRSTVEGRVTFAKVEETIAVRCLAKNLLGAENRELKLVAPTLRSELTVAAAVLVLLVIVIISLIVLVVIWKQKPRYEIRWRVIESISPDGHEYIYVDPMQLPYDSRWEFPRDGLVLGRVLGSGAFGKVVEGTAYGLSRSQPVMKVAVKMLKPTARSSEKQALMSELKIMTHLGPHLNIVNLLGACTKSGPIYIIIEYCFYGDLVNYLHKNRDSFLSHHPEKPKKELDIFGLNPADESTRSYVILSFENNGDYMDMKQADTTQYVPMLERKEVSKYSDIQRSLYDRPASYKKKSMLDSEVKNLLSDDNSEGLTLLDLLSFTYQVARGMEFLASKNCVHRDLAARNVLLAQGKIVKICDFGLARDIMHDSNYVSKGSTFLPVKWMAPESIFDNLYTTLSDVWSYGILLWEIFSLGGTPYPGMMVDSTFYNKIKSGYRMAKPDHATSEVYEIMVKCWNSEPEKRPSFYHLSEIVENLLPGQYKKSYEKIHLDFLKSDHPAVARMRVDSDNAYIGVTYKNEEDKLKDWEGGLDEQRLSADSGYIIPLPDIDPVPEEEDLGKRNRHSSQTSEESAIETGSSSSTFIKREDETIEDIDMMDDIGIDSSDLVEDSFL

SMILES: COc1cc(Nc2nc(Nc3ccc(N4CCNCC4)cc3)ncc2C)ccc1Cl [Compound XLIV, N^4-(4-Chloro-3-methoxy-phenyl)-5-methyl-N^2-(4-piperazin-1-yl-phenyl)-pyrimidine-2,4-diamine]
- concentration at 2 h [1, 5]: 103000 nM
- concentration at 7 h [1, 5]: 26600 nM
- concentration at 2 h [1, 6]: 406 nM
- concentration at 7 h [1, 6]: 321 nM
- concentration at 2 h [1, 7]: 4840 nM
- concentration at 7 h [1, 7]: 3180 nM

SMILES: Cc1nc(Nc2ncc(C(=O)Nc3c(C)cccc3Cl)s2)cc(N2CCN(CCO)CC2)n1 [Dasatinib, dasatinib]
- IC50 [2]: 1300 nM
- GI50 ([3]; XTT assay, read-out: Cellular IC50 Ba/F3 T674I): 30900 nM
- IC50 ([4]; Homo sapiens, EOL1, XTT assay, read-out: Cellular IC50 EOL-1): < 0.001 nM

SMILES: COc1cc(Nc2nc(Nc3ccc(OC4CCNCC4)cc3)ncc2C)ccc1Cl [Compound LXXXII, N^4-(4-Chloro-3-methoxy-phenyl)-5-methyl-N^2-[4-(piperidin-4-yloxy)-phenyl]-pyrimidine-2,4-diamine]
- concentration at 2 h [1, 5]: 69900 nM
- concentration at 7 h [1, 5]: 45400 nM
- concentration at 2 h [1, 6]: 267 nM
- concentration at 7 h [1, 6]: 592 nM
- concentration at 2 h [1, 7]: 2340 nM
- concentration at 7 h [1, 7]: 2250 nM

SMILES: Cc1cnc(Nc2ccc(N3CCN(C)CC3)cc2)nc1Nc1ccc(Cl)c2[nH]ccc12 [Compound LXXIV, N^4-(7-Chloro-1H-indol-4-yl)-5-methyl-N^2-(4-(4-methylpiperazin-1-yl)phenyl)pyrimidine-2,4-diamine]
- concentration at 2 h [1, 5]: 45000 nM
- concentration at 7 h [1, 5]: 21000 nM
- concentration at 2 h [1, 6]: 2120 nM
- concentration at 7 h [1, 6]: 2150 nM
- concentration at 2 h [1, 7]: 6090 nM
- concentration at 7 h [1, 7]: 7350 nM

SMILES: Cc1cn(-c2cc(NC(=O)c3ccc(C)c(Nc4nccc(-c5cccnc5)n4)c3)cc(C(F)(F)F)c2)cn1 [nilotinib]
- concentrations inhibiting growth of Ba/F3 cells harboring FIP1L1-PDFGRA-T674I [3]: nanomolar concentrations

SMILES: Cc1ccc(NC(=O)c2ccc(CN3CCN(C)CC3)cc2)cc1Nc1nccc(-c2cccnc2)n1 [Imatinib, imatinib mesylate]
- concentrations inhibiting EOL-1 growth [4]: picomolar concentrations

SMILES: Cc1cnc(Nc2ccc(OCCN3CCCC3)cc2)nc1Nc1cccc2c1OCO2 [Compound XXXVI, N^4-Benzo[1,3]dioxol-4-yl-5-methyl-N^2-[4-(2-pyrrolidin-1-yl-ethoxy)-phenyl]-pyrimidine-2,4-diamine]
- concentration at 2 h [1, 5]: 7870 nM
- concentration at 7 h [1, 5]: 18600 nM
- concentration at 2 h [1, 6]: 816 nM
- concentration at 7 h [1, 6]: 11200 nM
- concentration at 2 h [1, 7]: 7250 nM
- concentration at 7 h [1, 7]: 34800 nM

SMILES: CNS(=O)(=O)c1cc(Nc2nc(Nc3ccc(OCCN4CCCC4)cc3)ncc2C)ccc1C [2,N-Dimethyl-5-{5-methyl-2-[4-(2-pyrrolidin-1-yl-ethoxy)-phenylamino]-pyrimidin-4-ylamino}-benzenesulfonamide]
- IC50 (recombinant JAK2; Table 1): 127 nM

SMILES: Cc1cnc(Nc2cccc(S(=O)(=O)N3CCN(C)CC3)c2)nc1Nc1cccc(S(=O)(=O)NC(C)(C)C)c1 [N-tert-butyl-3-{[5-methyl-2-({3-[(4-methylpiperazin-1-yl)sulfonyl]phenyl}amino)pyrimidin-4-yl]amino}benzenesulfonamide]
- IC50 (recombinant JAK2; Table 1): 650 nM

SMILES: COc1cc(Nc2nc(Nc3cccc(OCCN4CCCC4)c3)ncc2C#N)c(Cl)cc1Cl [Compound 2]
- IC50 (recombinant JAK2; Table 5, Initial Screening Hits for JAK2): 10500 nM
- IC50 (recombinant JAK2; Table 7, SAR for the P3 region): 10500 nM

SMILES: Cc1cnc(Nc2ccc(-n3ccnc3C)cc2)nc1Nc1cccc(C(C)(C)C)c1 [N4-(3-tert-butylphenyl)-5-methyl-N2-(4-(2-methyl-1H-imidazol-1-yl)phenyl)pyrimidine-2,4-diamine Hydrochloride]
- IC50 (recombinant JAK2; Table 1): 38.4 nM

SMILES: Cc1cnc(Nc2ccc(OCCN3CCCC3)cc2)nc1Nc1cccc2[nH]ccc12 [N2-(4-(2-(pyrrolidin-1-yl)ethoxy)phenyl)-N4-(1H-indol-4-yl)-5-methylpyrimidine-2,4-diamine Hydrochloride]
- IC50 (recombinant JAK2; Table 1): 19.2 nM

SMILES: CNS(=O)(=O)c1cccc(Nc2nc(Nc3ccc(N4CCN(C)CC4)cc3)ncc2C)c1 [N-Methyl-3-{5-methyl-2-[4-(4-methyl-piperazin-1-yl)-phenylamino]-pyrimidin-4-ylamino}-benzenesulfonamide]
- IC50 (recombinant JAK2; Table 1): 16.1 nM

SMILES: Cc1ccc(Nc2nc(Nc3ccc(OCCN4CCCC4)cc3)ncc2C)cc1 [N2-(4-(2-(pyrrolidin-1-yl)ethoxy)phenyl)-5-methyl-N4-p-tolylpyrimidine-2,4-diamine Hydrochloride]
- IC50 (recombinant JAK2; Table 1): 35.7 nM

SMILES: O=S(=O)(NCCN1CCCC1)c1ccc(Nc2nccc(Nc3cccc(O)c3)n2)cc1 [4-[4-(3-Hydroxy-phenylamino)-pyrimidin-2-ylamino]-N-(2-pyrrolidin-1-yl-ethyl)-benzenesulfonamide trifluoroacetate]
- IC50 (recombinant JAK2; Table 1): 3620 nM

SMILES: Cc1cnc(Nc2ccc(OCCN3CCCC3)cc2)nc1Nc1cccc(C(C)(C)C)c1 [N2-(4-(2-(pyrrolidin-1-yl)ethoxy)phenyl)-N4-(3-tert-butylphenyl)-5-methylpyrimidine-2,4-diamine Hydrochloride]
- IC50 (recombinant JAK2; Table 1): 6.71 nM

SMILES: Cc1cnc(Nc2ccc(Cn3ccnc3C)cc2)nc1Nc1cccc(S(=O)(=O)NC(C)(C)C)c1 [N-tert-Butyl-3-{5-methyl-2-[4-(2-methyl-imidazol-1-ylmethyl)-phenylamino]-pyrimidin-4-ylamino}-benzenesulfonamide]
- IC50 (recombinant JAK2; Table 1): 21.9 nM

SMILES: Cc1cnc(Nc2ccc(N3CCNCC3)cc2)nc1Nc1cccc(S(=O)(=O)NC(C)(C)C)c1 [N-tert-Butyl-3-[5-methyl-2-(4-piperazin-1-yl-phenylamino)-pyrimidin-4-ylamino]-benzenesulfonamide Hydrochloride]
- IC50 (recombinant JAK2; Table 1): 7.59 nM

SMILES: COc1cc(Nc2nc(Nc3ccc(OC4CCNCC4)cc3)ncc2C)ccc1Cl [drawing 349, N4-(4-Chloro-3-methoxy-phenyl)-5-methyl-N2-[4-(piperidin-4-yloxy)-phenyl]-pyrimidine-2,4-diamine]
- IC50 (recombinant JAK2; Table 1): 4.14 nM

SMILES: COc1cc(Nc2nc(Nc3ccc(OCCN4CCCC4)cc3)ncc2C)ccc1Cl [drawing 311, N4-(4-Chloro-3-methoxy-phenyl)-5-methyl-N2-[4-(2-pyrrolidin-1-yl-ethoxy)-phenyl]-pyrimidine-2,4-diamine]
- IC50 (recombinant JAK2; Table 1): 7.96 nM

SMILES: COc1ccc(Nc2ncc(C)c(Nc3cccc4c3OCO4)n2)cc1 [Compound 7]
- IC50 (recombinant JAK2; Table 7, SAR for the P3 region): 46 nM

SMILES: Cc1cnc(Nc2ccc(CN3CCOCC3)cc2)nc1Nc1cccc2[nH]ccc12 [N4-(1H-Indol-4-yl)-5-methyl-N2-(4-morpholin-4-ylmethyl-phenyl)-pyrimidine-2,4-diamine]
- IC50 (recombinant JAK2; Table 1): 7.42 nM

SMILES: COc1cc(Nc2nc(Nc3ccc(N4CCCCC4)cc3)ncc2C)ccc1Cl [N4-(4-Chloro-3-methoxy-phenyl)-5-methyl-N2-(4-piperidin-1-yl-phenyl)-pyrimidine-2,4-diamine]
- IC50 (recombinant JAK2; Table 1): 35.3 nM

SMILES: COc1cccc(Nc2ccnc(Nc3ccc(OCCN4CCCC4)cc3)n2)c1C [N4-(3-Methoxy-2-methyl-phenyl)-N2-[4-(2-pyrrolidin-1-yl-ethoxy)-phenyl]-pyrimidine-2,4-diamine]
- IC50 (recombinant JAK2; Table 1): 371 nM

SMILES: Cc1cnc(Nc2ccc(OC3CCNCC3)cc2)nc1Nc1ccc(Cl)c(C(F)(F)F)c1 [N4-(4-Chloro-3-trifluoromethyl-phenyl)-5-methyl-N2-[4-(piperidin-4-yloxy)-phenyl]-pyrimidine-2,4-diamine]
- IC50 (recombinant JAK2; Table 1): 11.4 nM

SMILES: Cc1ccc(Nc2nc(Nc3ccc(N4CCN(C)CC4)cc3)ncc2C)cc1C [drawing 459, 5-methyl-N4-(3,4-dimeihylphenyl)-N2-(4-(4-methylpiperazin-1-yl)phenyl)pyrimidine-2,4-diamine Hydrochloride]
- IC50 (recombinant JAK2; Table 1): 16.6 nM
